For this test, the target named is RAF proto-oncogene serine/threonine-protein kinase (Homo sapiens, UniProt P04049). Put plainly: Kinase Assay: Protein kinase assay: Assay platform was used to measure kinase/inhibitor interactions as described previously (Anastassiadis et al., 2011). In brief, for each reaction, kinase and substrate were mixed in a buffer containing 20 mM HEPES (pH 7.5), 10 mM MgCl2, 1 mM EGTA, 0.02% Brij35, 0.02 mg/mL BSA, 0.1 mM Na3VO4, 2 mM DTT, and 1% DMSO. All compounds were solubilized in DMSO. Compounds were then added to each reaction mixture via acoustic dispense using an ECHO 550 nanoliter dispenser. For human RAF1 testing, human MEK1 (K97R) was used as a substrate at a concentration of 3 micromolar, with a final ATP concentration of 10 micromolar. For human BRAF testing, human MEK1 (K97R) was used as a substrate at 1 micromolar concentration, with a final ATP concentration of 25 micromolar. […] After a 20-min incubation, ATP (Sigma-Aldrich, St. Louis, Mo. 63178) and [g33P] ATP (specific activity 10 microCi/microliter) purchased at PerkinElmer (Boston, Mass., 02118 Cat #BLU 003H250UC) were added at a final total concentration of 10 mM. Reactions were carried out at room temperature for 2 hr and spotted onto P81 ion exchange cellulose chromatography paper (Reaction Biology). Filter paper was washed in 0.75% phosphoric acid to remove unincorporated ATP. The percent remaining kinase activity relative to a vehicle-containing (DMSO) kinase reaction was calculated for each kinase/inhibitor pair. […].
Sequence of RAF proto-oncogene serine/threonine-protein kinase (P04049 whole entry): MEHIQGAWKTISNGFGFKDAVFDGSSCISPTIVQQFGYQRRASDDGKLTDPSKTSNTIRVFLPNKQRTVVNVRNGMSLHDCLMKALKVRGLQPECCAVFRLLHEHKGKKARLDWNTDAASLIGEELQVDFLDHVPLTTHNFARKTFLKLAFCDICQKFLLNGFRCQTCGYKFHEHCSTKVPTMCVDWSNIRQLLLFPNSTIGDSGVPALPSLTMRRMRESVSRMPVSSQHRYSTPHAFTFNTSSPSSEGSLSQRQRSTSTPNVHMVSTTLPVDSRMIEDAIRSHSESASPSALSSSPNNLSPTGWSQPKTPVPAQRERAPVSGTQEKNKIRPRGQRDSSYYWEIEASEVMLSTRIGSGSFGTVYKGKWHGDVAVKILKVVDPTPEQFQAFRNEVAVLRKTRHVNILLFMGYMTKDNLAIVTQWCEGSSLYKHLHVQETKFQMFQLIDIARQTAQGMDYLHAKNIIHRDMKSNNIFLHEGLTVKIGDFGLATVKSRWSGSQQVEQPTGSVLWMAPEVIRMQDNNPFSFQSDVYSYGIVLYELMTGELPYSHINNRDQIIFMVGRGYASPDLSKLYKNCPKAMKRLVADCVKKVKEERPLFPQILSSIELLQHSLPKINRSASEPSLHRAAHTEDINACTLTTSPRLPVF

Consider one compound from ChEMBL document CHEMBL5729738, “Inhibitors of RAF kinases” (2023).

As a reminder, the IC50 is the midpoint of a concentration-inhibition curve. With `CNc1ncc2cc(-c3cc(NC(=O)N4CC[C@H](C(F)(F)F)C4)c(F)cc3C)c(C)nc2n1`, the IC50 was under 10 nM.
